Measured values: US20110306579A1, “METHODS OF NEUROPROTECTION USING NEUROPROTECTIVE STEROIDS AND A VITAMIN D” (EMORY UNIVERSITY, priority 2009, published 2011)

How the values were obtained:
[1] = test system: 20-month old Fischer 344 rats; experiment: Cerebral edema analysis after cortical contusion brain injury; type: in vivo, rat; conditions: 4 mg/kg
Procedure: The methodology used is described in VanLandingham et al., Neuropharmacology, 2006, 51, 1078-1085.
Sterile surgical procedures were used to prevent animal infection. Rats (20-month old Fischer 344 rats, which are the “human” equivalent of about 60 years old) were anesthetized and maintained on isoflurane and an equivalent amount of […] and O2 for 3 min prior to surgery. After brain contusion, O2 levels were doubled compared to […] and maintained through the reainder of the surgery procedure. A stereotaxic apparatus was used to stabilize the head in a horizontal position. Core body temperature was monitored and maintained at 37° C. using a Harvard homeothermic blanket (Harvard Apparatus, Holliston, Mass.). There was no direct measure used to deterct brain temperature. Blood oxygen and heart rate were maintained using a SurgiVet monitor (SurgiVet, Waukesha, Wis.) and maintained above 90% and 340 bpm respectively. A midline incision was made and the scalp retracted. A bilateral 6-mm craniotomy was performed with surgical drill centered at 3 mm rostral to bregma. The stainless steel impactor was positioned over the MFC at 3.0 mm A/P and 0.0 M/L. These coordinates represent the MFC as described by Paxinos and Watson (The Rat Brain in Stereotaxic Coordinates, Academic Press, San Diego, 1986). The cortical injury was induced using a pneumatically controlled device (Hoffman et al., J. Neurotrauma, 1994, 11, 417-431). Brain impact duration was 0.5 s. using a 5-mm impactor tip with a velocity set at 2.125 m/s and a cortical depth of 2 mm. Following the contusion, bleeding was halded and fascia and scalp were sutured shut. After surgery, animals were allowed to recover from anesthesia on a homeothermic heating blanket in a holding cage until awake. sham surgeries controlled for anesthesia and stress. All surgical procedures were the same, except that sham rates were not given a craniotomy or cortical injury. Previous studies using craniotomy as a control found no differences between shams with or without this procedure. (Goss et al., Pharmacol. Biochem. Behay. 2003, 76(2), 231-242).
These experimental solutions were then diluted 1:1 with sterile water for a final concentration of HBC of 22.5%.
All injections were done at the same time with brain harvesting at 24 h post-injury. Rats in each group were weightd prior to treatment to ensure proper dosage. The first injection at 1 h after surgery was given intraperitoneally to ensure rapid adsorption. All subsequent injections were made subcutaneously for gradual adsorption at 6 and 24 h. Injection times and neurosteroid doses were based on previous results of neurosteroid treatment (Roof et al., Twenty First Annual Meeting of the Society for Neuroscience, Miami Beach Fla., p. 191 and He et al., Exp. Neurol. 2004, 189, 404-412). The sterioids were dissolved in vehicle (22.5% 2-hydroxypropyl-b-cyclodextrin solution) at 4 mg/kg. The sham group received no treatment and injury control group received vehicle only.
At 24 h after traumatic brain injury flresh brains were extracted from the skull and the dorsal cerebrum was separated along the line of the lateral fissure. Four 3-mm coronal sections were cut rostral to caudal, placed in pre-weighed 1.5 mL tubes and re-weighed (wet weight). Tubes were then left uncapped and placed in a vacuum oven set at 60° C. with an atmospheric pressure of 0.3 for 48 h. Following tube recapping, the tissue samples were again weighed (dry weight). Cerebral edema (% water content) was determined as the difference in wet and dry weights divided by wet weight (Roof and Stein Restor. Neurol. Ncurosci., 1992, 4, 425-427). Edema measures are reflective of the difference inwater content between at the average of the two most rostral (injury region) segments and most caudal (occipital cortex) segments of the dorsal sections of the brain.

[2] = test system: 20-month-old male Fischer 344 rats; experiment: Spontaneous locomotor activity (open field) after TBI; type: in vivo, rat; conditions: 72 hours after injury; normalized to sham
Description: The animals in this study were separated into two groups, vitamin D normal (D-normal) and vitamin D deficient (D-deficient). […] Animals in the D-deficient group were maintained on the diet for at least 21 days prior to surgery. […] For this same reason the null diet was not altered in any other way, and the rats assigned to the D-deficient group were maintained on it until they were killed for harvesting of brain tissue. Since vitamin D is activated by UVB light (280-315 nm wavelength), the overhead lights were modified to not produce radiation in this range.
Animals dehydrated due to blood loss were given 3 mL of lactated Ringer's solution subcutaneously within 6 hours of injury.
Animals were assigned to D-normal or D-deficicnt groups. […] The same assignment was followed for both 24-hour and 72-hour survival groups. […] All drug treatments were dissolved in vehicle, and injection volume was equally proportional to each animal's weight across all groups. The intact sham (SHAM) groups served to provide baseline data and therefore received no injury or injections.
In addition to molecular measures of inflammatory cytokines, the behavioral effects of the various treatments were examined. Since this study was limited to the short term effects on inflammation, only short-term Spontaneous Locomotor Activity was used.

[3] = test system: E18 rat primary cortical neurons; experiment: Morphological analysis of cortical cultures (phase contrast); type: cell-based; conditions: glutamate 0.5 μM for 24 h; data not shown
Description: Changes in the morphology of neurons treated with different drugs in various groups were observed using a phase-contrast microscope (Nikon). Primary cultures were mainly observed for neurite outgrowth, a hallmark feature of healthy cells, and the density of healthy cells in different groups.

MAPK (ERK1/2) = experiment: MAPK phosphorylation (p-ERK1/2 Western blot) in primary cortical neurons; type: cell-based, rat; conditions: PROG 20 μM, 30-minute treatment
Procedure: PROG and VDH were added to the primary cultures, as described above, for 30 minutes ([…], et al., (2002) Endocrinology 143: 205-212) and the cells were lysed using RIPA lysis buffer kit (sc-24948, Santa Cruz, Calif., USA). Protein was determined in cell lysates by bicinchoninic acid (BCA) protein assay (Cat. # 23225, Pierce, Rockford, Ill., USA). Cell lysates (40 μg protein each sample) were separated under reducing and denaturing conditions by 12.5% acrylamide Criterion gel (BioRad, Hercules, Calif., USA) at 200V for 1 hour and transferred to a polyvinylidene difluoride (PVDF) membrane at 100V for 30 minutes. The non-specific binding sites of the membrane were blocked with 5% non-fat dry milk in PBS-T (phosphate buffered saline containing 0.05% Tween-20). […] Membranes were then incubated in horseradish peroxidase (HRP)-conjugated secondary antibody (Goat anti-rabbit IgG; 074-1506, KPL, Gaithersburg, Md., USA). β-actin was probed as a loading control. Blots were developed using a chemiluminescent substrate (Pierce) for 5 minutes.

[4] = test system: moderate to severe TBI patients; conditions: cited from earlier work

## CC(=O)[C@H]1CCC2C3CCC4=CC(=O)CC[C@]4(C)C3CC[C@@]21C (stereo partly shown) [progesterone]
[1]; 24 hours post brain injury
  edema compared to subjects treated with vehicle: decrease in edema
[1]; brain tissue 24 hours post brain injury, i.p. at 1 h, s.c. at 6 and 24 h
  mean % difference edema: 2.0%
[2]
  spontaneous locomotor activity (total distance, resting, stereotypy, movement time): little or no benefit
[3]
  morphology of neurons (neuronal processes, number of neurons) after glutamate: rescued neurons
MAPK (ERK1/2)
  increase in p-ERK1/2 level compared to control group: 2 ×
[4]; 3 days of intravenous treatment, 100 patients
  reduction of mortality: over 60%
[4]; 30 days post-injury
  functional outcomes: significantly improved functional outcomes
